Data from ChEMBL document CHEMBL4842322, “A naphthalimide-polyamine conjugate preferentially accumulates in hepatic carcinoma metastases as a lysosome-targeted antimetastatic agent” (Eur J Med Chem, 2021).
The source made the active and inactive calls. The rule behind the calls is not given here.

Columns and labels:
Huh-7 [1] = assay: Cytotoxicity against human Huh-7 cells assessed as reduction in cell viability at 5 to 15 uM incubated for 24 hrs in presence of polyamine transporter inhibitor, Spd by MTT assay; assay type: functional, cell-based; conditions: dose 5-15 µM
HepG2 [2] = assay: Cytotoxicity against human HepG2 cells assessed as inhibition of cell growth incubated for 48 hrs by MTT assay; assay type: functional, cell-based; conditions: HepG2, 48 h
MDA-MB-231 [3] = assay: Cytotoxicity against human MDA-MB-231 cells assessed as inhibition of cell growth incubated for 48 hrs by MTT assay; assay type: functional, cell-based; conditions: MDA-MB-231, 48 h
HepG2 [4] = assay: Cytotoxicity against human HepG2 cells assessed as inhibitory of cell growth measured after 24 hrs by MTT assay; assay type: functional, cell-based; conditions: HepG2, 24 h
Huh-7 [5] = assay: Cytotoxicity against human Huh-7 cells assessed as inhibition of cell growth measured after 24 hrs by MTT assay; assay type: functional, cell-based; conditions: Huh-7, 24 h
L02 = assay: Cytotoxicity against human HL7702 cells assessed as inhibition of cell growth measured after 24 hrs by MTT assay; assay type: cell-based; conditions: L02, 24 h
[6] = Selectivity index, ratio of IC50 for human HL7702 cells to IC50 for human HepG2 cells; assay type: toxicity; conditions: HL7702 cells and HepG2 cells, read-out: Ratio IC50
[7] = Selectivity index, ratio of IC50 for human HL7702 cells to IC50 for human Huh-7 cells; assay type: toxicity; conditions: HL7702 cells and Huh-7 cells, read-out: Ratio IC50
[8] = Antitumor activity against human HCC cells xenografted in BALB/c mouse assessed as inhibition of tumor weight at 1 mg/kg, iv administered once daily for 7 days; assay type: functional; conditions: 168 h, time 7 day
[9] = Antitumor activity against human HCC cells xenografted in BALB/c mouse assessed as inhibition of tumor weight at 5 mg/kg, iv administered once daily for 7 days; assay type: functional; conditions: 168 h, time 7 day
[10] = Antimetastatic activity against human HCC cells xenografted in BALB/c mouse assessed as reduction lung metastatic nodules at 1 mg/kg, iv administered once every 2 days for 14 days; assay type: functional; conditions: 336 h, time 14 day
HepG2 [11] = assay: Inhibition of tumor metastasis in human HepG2 cells assessed as downregulation of HMGB1 gene expression level measured after 24 hrs by qRT-PCR analysis; assay type: functional, cell-based; conditions: dose 5-15 µM
HepG2 [12] = assay: Inhibition of tumor metastasis in human HepG2 cells assessed as upregulation of p62 gene expression level at 5 to 15 uM measured after 24 hrs by qRT-PCR analysis; assay type: functional, cell-based; conditions: dose 5-15 µM
HepG2 [13] = assay: Inhibition of tumor metastasis in human HepG2 cells assessed as upregulation of SSAT gene expression level at 5 to 15 uM measured after 24 hrs by qRT-PCR analysis; assay type: functional, cell-based; conditions: dose 5-15 µM
[14] = Upregulation of PAO expression in human Huh-7 cells at 10 uM measured after 24 hrs relative to control; assay type: functional
Huh-7 [15] = assay: Downregulation of Putrescine contents in human Huh-7 cells measured after 24 hrs by HPLC analysis; assay type: functional, cell-based
HepG2 [16] = assay: Induction of apoptosis in human HepG2 cells assessed as induction of DNA damage by measuring upregulation of gammaH2AX expression at 5 to 15 uM; assay type: functional, cell-based; conditions: dose 5-15 µM
[17] = Antitumor activity against human HCC cells xenografted in BALB/c mouse assessed as tumor volume administered iv once daily for 7 days measured on day 7 (reference value: 910 mm3); assay type: functional; conditions: time 7 day
[18] = Toxicity in BALB/c mouse xenografted with human HCC cells assessed as effect on spleen weight index at 1 to 5 mg/kg, iv administered once daily for 7 days; assay type: organism-based; conditions: in vivo, 168 h, dose 1-5 mg/kg, time 7 day
[19] = Toxicity in BALB/c mouse xenografted with human HCC cells assessed as effect on kidney weight index at 1 to 5 mg/kg, iv administered once daily for 7 days; assay type: organism-based; conditions: in vivo, 168 h, dose 1-5 mg/kg, time 7 day
[20] = Toxicity in BALB/c mouse xenografted with human HCC cells assessed as effect on lung weight index at 1 to 5 mg/kg, iv administered once daily for 7 days; assay type: organism-based; conditions: in vivo, 168 h, dose 1-5 mg/kg, time 7 day
[21] = Drug uptake in endoplasmic reticulum of human HepG2 cells at 10 uM incubated for 8 hrs by ER-tarcker dye based laser confocal microscopy; assay type: ADME, subcellular; conditions: hepg2, 8 h
[22] = Drug uptake in mitochondria of human HepG2 cells at 10 uM incubated for 8 hrs by Mito-tarcker dye based laser confocal microscopy; assay type: ADME; conditions: hepg2, 8 h
[23] = Drug uptake in golgi apparatus of human HepG2 cells at 10 uM incubated for 8 hrs by Golgi-tracker dye based laser confocal microscopy; assay type: ADME, subcellular, Golgi body; conditions: hepg2, 8 h
[24] = Drug uptake in lysosomes of human HepG2 cells at 10 uM incubated for 8 hrs by Lyso-tracker dye based laser confocal microscopy; assay type: ADME, subcellular, Lysosome; conditions: hepg2, 8 h
A549 [25] = assay: Inhibition of tumor metastasis in cisplatin-resistant human A549 cells assessed as downregulation of HMGB1 protein expression level measured after 24 hrs by western blot analysis; assay type: functional, cell-based; conditions: dose 5-15 µM
A549 [26] = assay: Inhibition of tumor metastasis in cisplatin-resistant human A549 cells assessed as downregulation of LC3-II protein expression level at 5 to 15 uM measured after 24 hrs by western blot analysis; assay type: functional, cell-based; conditions: dose 5-15 µM
A549 [27] = assay: Inhibition of tumor metastasis in cisplatin-resistant human A549 cells assessed as upregulation of LC3-I protein expression level at 5 to 15 uM measured after 24 hrs by western blot analysis; assay type: functional, cell-based; conditions: dose 5-15 µM
HepG2 [28] = assay: Inhibition of tumor metastasis in human HepG2 cells assessed as upregulation of SSAT protein expression level at 5 to 15 uM measured after 24 hrs by western blot analysis; assay type: functional, cell-based; conditions: dose 5-15 µM
A549 [29] = assay: Inhibition of tumor metastasis in cisplatin-resistant human A549 cells assessed as upregulation of p62 protein expression level at 5 to 15 uM measured after 24 hrs by western blot analysis; assay type: functional, cell-based; conditions: dose 5-15 µM
HepG2 [30] = assay: Potency index, ratio of amonafide IC50 to test compound IC50 for human HepG2 cells by MTT assay; assay type: functional
HepG2 [31] = assay: Potency index, ratio of cisplatin IC50 to test compound IC50 for human HepG2 cells by MTT assay; assay type: functional
Huh-7 [32] = assay: Potency index, ratio of amonafide IC50 to test compound IC50 for human Huh-7 cells by MTT assay; assay type: functional
Huh-7 [33] = assay: Potency index, ratio of cisplatin IC50 to test compound IC50 for human Huh-7 cells by MTT assay; assay type: functional
[34] = Ratio of amonafide IC50 to test compound IC50 for human MDA-MB-231 cells by MTT assay; assay type: functional
MDA-MB-231 [35] = assay: Potency index, ratio of cisplatin IC50 to test compound IC50 for human MDA-MB-231 cells by MTT assay; assay type: functional
[36] = Ratio of amonafide IC50 to test compound IC50 for human MCF7 cells by MTT assay; assay type: functional
[37] = Ratio of cisplatin IC50 to test compound IC50 for human MCF7 cells by MTT assay; assay type: functional
A549 [38] = assay: Potency index, ratio of amonafide IC50 to test compound IC50 for human A549 cells by MTT assay; assay type: functional
[39] = Ratio of amonafide IC50 to test compound IC50 for cisplatin-resistant human A549 cells by MTT assay; assay type: functional
[40] = Potency index, ratio of cisplatin IC50 to test compound IC50 for cisplatin-resistant human A549 cells by MTT assay; assay type: functional

## NCCCCNCCCCNCCCCN1C(=O)c2cccc3cc(NC(=O)CN)cc(c23)C1=O
Huh-7 [1]
  Activity: inactive
HepG2 [2]
  IC50: 1320 nM
MDA-MB-231 [3]
  IC50: 15400 nM
HepG2 [4]
  IC50: 1320 nM
Huh-7 [5]
  IC50: 980 nM
L02
  IC50: 6300 nM
[6]
  selectivity ratio: 4.77
[7]
  selectivity ratio: 6.43
[8]
  inhibition in vivo at 1 mg/kg: 58.5%
[9]
  inhibition in vivo at 5 mg/kg: 76%
[10]
  inhibition in vivo at 1 mg/kg: 58.5%
HepG2 [11]
  inhibition: Dose-Dependent Effect
HepG2 [12]
  inhibition: Active
HepG2 [13]
  inhibition: Active
[14]
  fold change (FC): 1.5
Huh-7 [15]
  inhibition: Active
HepG2 [16]
  Activity: Active
[17]
  Activity: 400 mm3
[18]
  Activity: Non-Toxic
[19]
  Activity: Non-Toxic
[20]
  Activity: Non-Toxic
[21]
  Drug uptake: Not Active
[22]
  Drug uptake: Not Active
[23]
  Drug uptake: Not Active
[24]
  Drug uptake: Active
A549 [25]
  inhibition: Dose-Dependent Effect
A549 [26]
  inhibition: Active
A549 [27]
  inhibition: Active
HepG2 [28]
  inhibition: Active
A549 [29]
  inhibition: Active
HepG2 [30]
  Ratio IC50: 7.1
HepG2 [31]
  Ratio IC50: 6.74
Huh-7 [32]
  Ratio IC50: 8.69
Huh-7 [33]
  Ratio IC50: 15.33
[34]
  Ratio IC50: 0.99
MDA-MB-231 [35]
  Ratio IC50: 2.11
[36]
  Ratio IC50: 0.67
[37]
  Ratio IC50: 0.59
A549 [38]
  Ratio IC50: 1.15
[39]
  Ratio IC50: 0.62
[40]
  Ratio IC50: 2.76
